Reference: ChEMBL document CHEMBL4024727, “Synthesis and antimycobacterial screening of new thiazolyl-oxazole derivatives” (Eur J Med Chem, 2017)
Values after ≈ are worked out from the molar mass of the structure shown.

Tests used:
[1] = Selectivity index, ratio of GI50 for human A549 cells to MIC for Mycobacterium tuberculosis H37Ra ATCC 25177 dormant stage; type: toxicity; details: read-out: Selectivity Index
[2] = system: Pseudomonas fluorescens; assay: Growth inhibition of Pseudomonas fluorescens NCIM 2059 at 1 ug/ml measured after 8 hrs relative to control; type: functional; details: NCIM 2059, 8 h, read-out: GI
[3] = system: Staphylococcus aureus; assay: Growth inhibition of Staphylococcus aureus NCIM 2602 at 1 ug/ml measured after 12 hrs relative to control; type: functional; details: NCIM 2602, 12 h, read-out: GI
[4] = system: Escherichia coli; assay: Antibacterial activity against Escherichia coli NCIM 2576 measured after 8 hrs; type: functional; details: NCIM 2576, 8 h
[5] = system: Escherichia coli; assay: Growth inhibition of Escherichia coli NCIM 2576 at 1 ug/ml measured after 8 hrs relative to control; type: functional; details: NCIM 2576, 8 h, read-out: GI
[6] = system: Staphylococcus aureus; assay: Antibacterial activity against Staphylococcus aureus NCIM 2602 measured after 12 hrs; type: functional; details: NCIM 2602, 12 h
[7] = system: Bacillus subtilis; assay: Growth inhibition of Bacillus subtilis NCIM 2162 at 30 ug/ml measured after 12 hrs relative to control; type: functional; details: NCIM 2162, 12 h, read-out: GI
[8] = system: Mycobacterium tuberculosis; assay: Growth inhibition of Mycobacterium tuberculosis H37Ra ATCC 25177 at 3 ug/ml by XTT dye based two-fold dilution method relative to control; type: functional; details: read-out: GI
[9] = system: Mycobacterium tuberculosis; assay: Growth inhibition of Mycobacterium bovis BCG ATCC 35743 at 1 ug/ml by nitrate reductase based two-fold dilution assay relative to control; type: functional; details: BCG str. ATCC 35743, read-out: GI
[10] = system: Staphylococcus aureus; assay: Growth inhibition of Staphylococcus aureus NCIM 2602 at 10 ug/ml measured after 12 hrs relative to control; type: functional; details: NCIM 2602, 12 h, read-out: GI
[11] = Selectivity index, ratio of GI50 for human PANC1 cells to MIC for Mycobacterium bovis BCG ATCC 35743 dormant stage; type: toxicity; details: PANC-1 cells, read-out: Selectivity Index
[12] = system: Mycobacterium tuberculosis; assay: Antitubercular activity against Mycobacterium tuberculosis H37Ra ATCC 25177 dormant stage by XTT dye based two-fold dilution method; type: functional
[13] = system: A549; assay: (§1) Growth inhibition of human A549 cells by MTT assay; type: cell-based; details: a549
[14] = as §1; type: cell-based; details: A549 cells
[15] = system: Staphylococcus aureus; assay: Growth inhibition of Staphylococcus aureus NCIM 2602 at 30 ug/ml measured after 12 hrs relative to control; type: functional; details: NCIM 2602, 12 h, read-out: GI
[16] = Selectivity index, ratio of GI50 for human A549 cells to MIC for Mycobacterium bovis BCG ATCC 35743 dormant stage; type: toxicity; details: read-out: Selectivity Index
[17] = Selectivity index, ratio of GI50 for human HeLa cells to MIC for Mycobacterium tuberculosis H37Ra ATCC 25177 dormant stage; type: toxicity, cell-based; details: read-out: Selectivity Index
[18] = system: Bacillus subtilis; assay: Growth inhibition of Bacillus subtilis NCIM 2162 at 10 ug/ml measured after 12 hrs relative to control; type: functional; details: NCIM 2162, 12 h, read-out: GI
[19] = system: Pseudomonas fluorescens; assay: Antibacterial activity against Pseudomonas fluorescens NCIM 2059 measured after 8 hrs; type: functional; details: NCIM 2059, 8 h
[20] = Selectivity index, ratio of GI50 for human HeLa cells to MIC for Mycobacterium bovis BCG ATCC 35743 dormant stage; type: toxicity, cell-based; details: read-out: Selectivity Index
[21] = system: Mycobacterium tuberculosis; assay: Growth inhibition of Mycobacterium bovis BCG ATCC 35743 at 30 ug/ml by nitrate reductase based two-fold dilution assay relative to control; type: functional; details: BCG str. ATCC 35743, read-out: GI
[22] = system: Mycobacterium tuberculosis; assay: Antitubercular activity against Mycobacterium bovis BCG ATCC 35743 dormant stage by nitrate reductase based two-fold dilution assay; type: functional; details: BCG str. ATCC 35743
[23] = Selectivity index, ratio of GI50 for human PANC1 cells to MIC for Mycobacterium tuberculosis H37Ra ATCC 25177 dormant stage; type: toxicity; details: PANC-1 cells, read-out: Selectivity Index
[24] = system: Pseudomonas fluorescens; assay: Growth inhibition of Pseudomonas fluorescens NCIM 2059 at 30 ug/ml measured after 8 hrs relative to control; type: functional; details: NCIM 2059, 8 h, read-out: GI
[25] = system: HeLa; assay: (§2) Growth inhibition of human HeLa cells by MTT assay; type: cell-based; details: hela
[26] = as §2; type: cell-based; details: HeLa cells
[27] = system: Mycobacterium tuberculosis; assay: Growth inhibition of Mycobacterium bovis BCG ATCC 35743 at 10 ug/ml by nitrate reductase based two-fold dilution assay relative to control; type: functional; details: BCG str. ATCC 35743, read-out: GI
[28] = system: Bacillus subtilis; assay: Growth inhibition of Bacillus subtilis NCIM 2162 at 1 ug/ml measured after 12 hrs relative to control; type: functional; details: NCIM 2162, 12 h, read-out: GI
[29] = system: PANC-1; assay: (§3) Growth inhibition of human PANC1 cells by MTT assay; type: cell-based; details: panc-1
[30] = as §3; type: cell-based, PANC-1; details: PANC-1 cells
[31] = system: Mycobacterium tuberculosis; assay: Growth inhibition of Mycobacterium tuberculosis H37Ra ATCC 25177 at 10 ug/ml by XTT dye based two-fold dilution method relative to control; type: functional; details: read-out: GI
[32] = system: Pseudomonas fluorescens; assay: Growth inhibition of Pseudomonas fluorescens NCIM 2059 at 10 ug/ml measured after 8 hrs relative to control; type: functional; details: NCIM 2059, 8 h, read-out: GI
[33] = system: Bacillus subtilis; assay: Antibacterial activity against Bacillus subtilis NCIM 2162 measured after 12 hrs; type: functional; details: NCIM 2162, 12 h
[34] = system: Escherichia coli; assay: Growth inhibition of Escherichia coli NCIM 2576 at 30 ug/ml measured after 8 hrs relative to control; type: functional; details: NCIM 2576, 8 h, read-out: GI
[35] = system: Mycobacterium tuberculosis; assay: Growth inhibition of Mycobacterium tuberculosis H37Ra ATCC 25177 at 30 ug/ml by XTT dye based two-fold dilution method relative to control; type: functional; details: read-out: GI
[36] = system: Escherichia coli; assay: Growth inhibition of Escherichia coli NCIM 2576 at 10 ug/ml measured after 8 hrs relative to control; type: functional; details: NCIM 2576, 8 h, read-out: GI

Compound | selectivity ratio [1] | inhibition of growth at 1 µg/mL [2] [%] | inhibition of growth at 1 µg/mL [3] [%] | MIC [4] | inhibition of growth at 1 µg/mL [5] [%] | MIC [6] | inhibition of growth at 30 µg/mL [7] [%] | inhibition of growth at 3 µg/mL [8] [%] | inhibition of growth at 1 µg/mL [9] [%] | inhibition of growth at 10 µg/mL [10] [%] | selectivity ratio [11] | IC50 [12] [µM] | MIC90 [12] [µM] | GI90 [13] [µg/mL] | GI50 [14] [µg/mL] | inhibition of growth at 30 µg/mL [15] [%] | selectivity ratio [16] | selectivity ratio [17] | inhibition of growth at 10 µg/mL [18] [%] | MIC [19] | further results
Cc1nc(-c2ccccc2)oc1-c1csc(Cc2ccc(Cl)cc2)n1 | 95 | 81 | 79.1 | 18.3 µg/mL | 78.7 | 22.7 µg/mL | 90.4 | 92 | 96 | 85.6 | 117 | 0.35 | 7.19 (≈ 2.64 µg/mL) | > 250 | > 250 | 92.4 | 117 | 47 | 85.2 | 18 µg/mL | selectivity ratio [20]: 58; inhibition of growth at 30 µg/mL [21]: 97%; IC50 [22]: 0.32 µM; MIC90 [22]: 5.8 µM (≈ 2.13 µg/mL); selectivity ratio [23]: 95; inhibition of growth at 30 µg/mL [24]: 95%; GI90 [25]: > 250 µg/mL; GI50 [26]: 124 µg/mL (≈ 339 µM); inhibition of growth at 10 µg/mL [27]: 97%; inhibition of growth at 1 µg/mL [28]: 74.2%; GI90 [29]: > 250 µg/mL; GI50 [30]: > 250 µg/mL; inhibition of growth at 10 µg/mL [31]: 93%; inhibition of growth at 10 µg/mL [32]: 87.3%; MIC [33]: 27.6 µg/mL; inhibition of growth at 30 µg/mL [34]: 97.9%; inhibition of growth at 30 µg/mL [35]: 98%; inhibition of growth at 10 µg/mL [36]: 84.5%
Cc1nc(-c2ccc(F)cc2)oc1-c1csc(Cc2ccccc2)n1 | 115 | 87 | 93.9 | 20.6 µM | 88.8 | 6.85 µM | 99.9 | 95 | 97 | 95.9 | 97 | 0.49 | 6.2 (≈ 2.17 µg/mL) | > 250 | > 250 | 98.5 | 97 | 68 | 95.8 | 19.1 µM | selectivity ratio [20]: 58; inhibition of growth at 30 µg/mL [21]: 97%; IC50 [22]: 0.54 µM; MIC90 [22]: 7.33 µM (≈ 2.57 µg/mL); selectivity ratio [23]: 115; inhibition of growth at 30 µg/mL [24]: 99.6%; GI90 [25]: 248.63 µg/mL (≈ 710 µM); GI50 [26]: 148 µg/mL (≈ 423 µM); inhibition of growth at 10 µg/mL [27]: 96%; inhibition of growth at 1 µg/mL [28]: 91.2%; GI90 [29]: > 250 µg/mL; GI50 [30]: > 250 µg/mL; inhibition of growth at 10 µg/mL [31]: 94%; inhibition of growth at 10 µg/mL [32]: 92.4%; MIC [33]: 5.99 µM; inhibition of growth at 30 µg/mL [34]: 94%; inhibition of growth at 30 µg/mL [35]: 99%; inhibition of growth at 10 µg/mL [36]: 90.3%
Cc1nc(-c2ccc(F)cc2)oc1-c1csc(Cc2ccc(F)cc2)n1 | 391 | 78.6 | 80 | 60.3 µM | 72.2 | 62.7 µM | 96.7 | 91 | 93 | 82.1 | 385 | 0.18 | 1.74 (≈ 0.641 µg/mL) | > 250 | > 250 | 94.1 | 385 | 148 | 88.2 | 54.8 µM | selectivity ratio [20]: 146; inhibition of growth at 30 µg/mL [21]: 96%; IC50 [22]: 0.19 µM; MIC90 [22]: 1.76 µM (≈ 0.648 µg/mL); selectivity ratio [23]: 391; inhibition of growth at 30 µg/mL [24]: 95.9%; GI90 [25]: > 250 µg/mL; GI50 [26]: 94.9 µg/mL (≈ 258 µM); inhibition of growth at 10 µg/mL [27]: 95%; inhibition of growth at 1 µg/mL [28]: 83.5%; GI90 [29]: > 250 µg/mL; GI50 [30]: > 250 µg/mL; inhibition of growth at 10 µg/mL [31]: 93%; inhibition of growth at 10 µg/mL [32]: 83.2%; MIC [33]: 39.1 µM; inhibition of growth at 30 µg/mL [34]: 94.8%; inhibition of growth at 30 µg/mL [35]: 93%; inhibition of growth at 10 µg/mL [36]: 85.2%
Cc1nc(-c2ccc(F)cc2)oc1-c1csc(Cc2cccc(Cl)c2)n1 | 88 | 72.5 | 71.7 | 69.6 µM | 70.5 | 55.6 µM | 93.7 | 93 | 98 | 82.4 | 104 | 0.23 | 7.38 (≈ 2.84 µg/mL) | > 250 | > 250 | 95.6 | 104 | 59 | 85.4 | 57.4 µM | selectivity ratio [20]: 70; inhibition of growth at 30 µg/mL [21]: 97%; IC50 [22]: 0.36 µM; MIC90 [22]: 6.26 µM (≈ 2.41 µg/mL); selectivity ratio [23]: 88; inhibition of growth at 30 µg/mL [24]: 93.3%; GI90 [25]: > 250 µg/mL; GI50 [26]: 168 µg/mL (≈ 436 µM); inhibition of growth at 10 µg/mL [27]: 95%; inhibition of growth at 1 µg/mL [28]: 79.7%; GI90 [29]: > 250 µg/mL; GI50 [30]: > 250 µg/mL; inhibition of growth at 10 µg/mL [31]: 92%; inhibition of growth at 10 µg/mL [32]: 85.7%; MIC [33]: 53.8 µM; inhibition of growth at 30 µg/mL [34]: 91.2%; inhibition of growth at 30 µg/mL [35]: 96%; inhibition of growth at 10 µg/mL [36]: 86.1%
